Measurements published in the NIST ThermoML archive (doi:10.1016/j.jct.2012.05.023).

Assays:
[1] = refractive index (Na D-line) (dimensionless); xn = mol fraction of the nth substance listed; conditions: 101.3 kPa, Liquid, Standard Abbe refractometry
[2] = xn = mol fraction of the nth substance listed; conditions: 101.3 kPa, Liquid; for speed of sound: Sing-around technique in a fixed-path interferometer; for mass density: Vibrating tube method

c1ccc2c(c1)CCCC2 [1,2,3,4-tetrahydronaphthalene] + CCCCCCCCCCCC
Conditions	mass density, [2] [kg/m3]	refractive index, [1]	speed of sound, [2] [m/s]
293.15 K, x1 = 0.1021	763.04	1.42964	1308.1
293.15 K, x1 = 0.2015	777.99	1.43768	1318.1
293.15 K, x1 = 0.307	795.31	1.44691	1331.6
293.15 K, x1 = 0.3998	811.97	1.45578	1344
293.15 K, x1 = 0.4985	831.41	1.46621	1359.7
293.15 K, x1 = 0.5961	852.66	1.47773	1377
293.15 K, x1 = 0.7019	878.22	1.49155	1399.4
293.15 K, x1 = 0.8012	905.15	1.5062	1423.8
293.15 K, x1 = 0.8998	935.03	1.52267	1453.4
293.15 K, x1 = 1	969.52	1.54155	1489.5
303.15 K, x1 = 0.1021	755.74	1.42538	1269.8
303.15 K, x1 = 0.2015	770.65	1.43335	1280
303.15 K, x1 = 0.307	787.92	1.44249	1293.4
303.15 K, x1 = 0.3998	804.53	1.45151	1306
303.15 K, x1 = 0.4985	823.91	1.46183	1321.7
303.15 K, x1 = 0.5961	845.1	1.47333	1339
303.15 K, x1 = 0.7019	870.59	1.48719	1361.2
303.15 K, x1 = 0.8012	897.44	1.50172	1385.4
303.15 K, x1 = 0.8998	927.23	1.51815	1414.7
303.15 K, x1 = 1	961.59	1.53687	1450.1
313.15 K, x1 = 0.1021	748.42	1.42102	1232.1
313.15 K, x1 = 0.2015	763.25	1.42887	1242.2
313.15 K, x1 = 0.307	780.5	1.43817	1255.9
313.15 K, x1 = 0.3998	797.07	1.44709	1268.5
313.15 K, x1 = 0.4985	816.39	1.45748	1284.3
313.15 K, x1 = 0.5961	837.52	1.46884	1301.5
313.15 K, x1 = 0.7019	862.94	1.48267	1323.6
313.15 K, x1 = 0.8012	889.71	1.49723	1347.6
313.15 K, x1 = 0.8998	919.41	1.51359	1376.6
313.15 K, x1 = 1	953.66	1.53216	1411.5
323.15 K, x1 = 0.1021	741.07	1.4166	1194.9
323.15 K, x1 = 0.2015	755.85	1.42456	1205.4
323.15 K, x1 = 0.307	773.06	1.43374	1218.9
323.15 K, x1 = 0.3998	789.61	1.44258	1231.6
323.15 K, x1 = 0.4985	808.85	1.45304	1247.4
323.15 K, x1 = 0.5961	829.89	1.46437	1264.5
323.15 K, x1 = 0.7019	855.26	1.47817	1286.7
323.15 K, x1 = 0.8012	881.98	1.49269	1310.5
323.15 K, x1 = 0.8998	911.58	1.50898	1339.2
323.15 K, x1 = 1	945.72	1.52752	1373.6
333.15 K, x1 = 0.1021	733.68	1.41223	1158.3
333.15 K, x1 = 0.2015	748.42	1.42011	1168.6
333.15 K, x1 = 0.307	765.58	1.42925	1182.6
333.15 K, x1 = 0.3998	782.08	1.43819	1195.2
333.15 K, x1 = 0.4985	801.28	1.44856	1211
333.15 K, x1 = 0.5961	822.25	1.45998	1228.2
333.15 K, x1 = 0.7019	847.55	1.47364	1250.3
333.15 K, x1 = 0.8012	874.21	1.48822	1274
333.15 K, x1 = 0.8998	903.72	1.5043	1302.5
333.15 K, x1 = 1	937.77	1.52274	1336.4
343.15 K, x1 = 0.1021	726.25	1.4078	1122.2
343.15 K, x1 = 0.2015	740.94	1.41563	1132.6
343.15 K, x1 = 0.307	758.06	1.42483	1146.8
343.15 K, x1 = 0.3998	774.5	1.43363	1159.3
343.15 K, x1 = 0.4985	793.67	1.44396	1175.4
343.15 K, x1 = 0.5961	814.59	1.45528	1192.4
343.15 K, x1 = 0.7019	839.81	1.46911	1214.6
343.15 K, x1 = 0.8012	866.35	1.48355	1238.2
343.15 K, x1 = 0.8998	895.83	1.49932	1266.4
343.15 K, x1 = 1	929.8	1.51795	1299.8
